Drawing on patent US8871756B2 (Hoffmann-La Roche Inc., priority 2011, dated 2014), this text covers EC50 for 31 compounds.

Structures are written as SMILES.

In the assay the test system is RSV Long strain. As to the kind of experiment: Viral cytopathic effect (CPE) assay, anti-RSV activity. Format: cell-based, Respiratory Syncytial Virus. To be noted: RSV Long strain (ATCC), cell viability after 6 days, Cell Counting kit-8. Here is the method: Viral cytopathic effect (CPE) assay: To measure anti-RSV activity of compounds, 96-well plates are seeded with 6×10^3 cells per well in Dulbecco's modified Eagle's medium (DMEM) containing 10% fetal bovine serum (FBS). Cells are infected the next day with sufficient RSV Long strain (ATCC) to produce an approximately 80-90% cytopathic effect after 6 days, in the presence of serial half-log diluted compound in a total volume of 200 μL per well. The viability of cells is assessed after 6 days using Cell Counting kit-8 (Dojindo Molecular Technologies). The absorbance at 450 nm and referenced at 630 nm is measured to determine 50% effective concentration (EC50).
The compounds of the present invention were tested for their anti-RSV activity, and the activation as described herein. The Examples were tested in the above assay and found to have EC50 of about 0.0001 μM to about 10 μM.
(Cytopathic effects are the visible damage that an infection or toxin causes in cultured cells.)

The mark [1] stands for this setting: human respiratory syncytial virus, 144 h.

What is called EC50 is the concentration that produces a half-maximal response. A low value points to an effect from little substance.

Under setting [1], `NCC1(CNc2cc(N3CCS(=O)(=O)c4ccccc4C3)nc3ccccc23)COC1` [Example 3-52, N-{[3-(Aminomethyl)oxetan-3-yl]methyl}-2-(1,1-dioxido-2,3-dihydro-1,4-benzothiazepin-4(5H)-yl)quinolin-4-amine] gave an EC50 of 0.005 µM. This counts as single-digit nanomolar. Take `NCCCNc1cc(N2CCS(=O)(=O)c3ccccc3C2)nc2ccc(C3CC3)cc12` [Example 51, N-[6-Cyclopropyl-2-(1,1-dioxido-2,3-dihydro-1,4-benzothiazepin-4(5H)-yl)quinolin-4-yl]propane-1,3-diamine]: the EC50 under setting [1] is 0.056 µM. `Cc1ccc2nc(N3CCC(F)(F)c4ccccc4C3)cc(NCCCN)c2c1` [Example 111-9, N-[2-(5,5-Difluoro-1,3,4,5-tetrahydro-2H-2-benzazepin-2-yl)-6-methylquinolin-4-yl]propane-1,3-diamine] came in with an EC50 under setting [1] of 0.047 µM. Under setting [1], `NC1(CNc2nc(N3CC[S+]([O-])c4ccccc4C3)nc3ccccc23)COC1` (stereo not shown) [Example 57-2, N-[(3-Aminooxetan-3-yl)methyl]-2-(1-oxido-2,3-dihydro-1,4-benzothiazepin-4(5H)-yl)quinazolin-4-amine] came in with an EC50 of 0.018 µM.

In turn, `Cc1ccc2nc(N3CCS(=O)(=O)c4ccccc4C3)nc(NCC3(N)CCC3)c2c1` [Example 61-2, N-[(1-Aminocyclobutyl)methyl]-2-(1,1-dioxido-2,3-dihydro-1,4-benzothiazepin-4(5H)-yl)-6-methylquinazolin-4-amine] yielded an EC50 under setting [1] of 0.097 µM. `Cc1ccc2nc(N3CCS(=O)(=O)c4cc(Cl)ccc4C3)cc(NCC3(N)COC3)c2c1` [Example 1-6, N-[(3-Aminooxetan-3-yl)methyl]-2-(8-chloro-1,1-dioxido-2,3-dihydro-1,4-benzothiazepin-4(5H)-yl)-6-methylquinolin-4-amine] displayed an EC50 under setting [1] of 0.022 µM. Still for that read-out and setting: for `Cc1ccc2nc(N3CCS(=O)(=O)c4ccccc4C3)cc(NCCS(=O)(=O)CCN)c2c1` [Example 75, N-{2-[(2-Aminoethyl)sulfonyl]ethyl}-2-(1,1-dioxido-2,3-dihydro-1,4-benzothiazepin-4(5H)-yl)-6-methylquinolin-4-amine] the value was 0.002 µM; for `Cc1ccc2nc(N3CCS(=O)(=O)c4ccccc4C3)cc(NCC3CNCCO3)c2c1` (stereo not shown) [Example 21-1, 2-(1,1-Dioxido-2,3-dihydro-1,4-benzothiazepin-4(5H)-yl)-6-methyl-N-(morpholin-2-ylmethyl)quinolin-4-amine], 0.023 µM.

`NCC1(CNc2nc(N3CC[S+]([O-])c4ccccc4C3)nc3ccc(C(=O)O)cc23)COC1` (stereo not shown) [Example 108-1, 4-({[3-(Aminomethyl)oxetan-3-yl]methyl}amino)-2-(1-oxido-2,3-dihydro-1,4-benzothiazepin-4(5H)-yl)quinazoline-6-carboxylic acid] came in with an EC50 under setting [1] of 0.488 µM. `Cc1ccc2nc(N3CCS(=O)(=O)c4ccccc4C3)cc(NC3CNCC3F)c2c1` (stereo not drawn) [Example 28-1, 2-(1,1-Dioxido-2,3-dihydro-1,4-benzothiazepin-4(5H)-yl)-N-trans-(4-fluoropyrrolidin-3-yl)-6-methylquinolin-4-amine]: the EC50 under setting [1] came to 0.007 µM. `Cc1ccc2nc(N3CCS(=O)(=O)c4ccccc4C3)nc(NCCC(F)CN)c2c1` (stereo not shown) [Example 62-4, N^˜4^˜-[2-(1,1-Dioxido-2,3-dihydro-1,4-benzothiazepin-4(5H)-yl)-6-methylquinazolin-4-yl]-2-fluorobutane-1,4-diamine] came in with an EC50 of 0.019 µM. In the case of `Cc1ccc2nc(N3CCS(=O)(=O)c4ccccc4C3)cc(NCCCCCCN)c2c1` [Example 3-56, N-[2-(1,1-Dioxido-2,3-dihydro-1,4-benzothiazepin-4(5H)-yl)-6-methylquinolin-4-yl]hexane-1,6-diamine], it took 0.716 µM to reach a half-maximal effect under setting [1] (EC50). On the same count and under the same terms, then `Cc1ccc2nc(N3CCS(=O)(=O)c4ccccc4C3)cc(NCC3CCCN3)c2c1` (stereo not shown) [Example 3-35, 2-(1,1-Dioxido-2,3-dihydro-1,4-benzothiazepin-4(5H)-yl)-6-methyl-N-(pyrrolidin-2-ylmethyl)quinolin-4-amine], with 0.013 µM. In turn, `Cc1ccc2nc(N3CC[S+]([O-])c4ccccc4C3)nc(NCCCN)c2c1` (stereo not shown) [Example 56-6, N-[6-Methyl-2-(1-oxido-2,3-dihydro-1,4-benzothiazepin-4(5H)-yl)quinazolin-4-yl]propane-1,3-diamine] registered an EC50 under setting [1] of 0.002 µM. Compared with the last compound, the EC50 is about 6.5-fold lower. Compound `Cc1ccc2nc(N3CCS(=O)(=O)c4ccc(N5CCN(C(C)C)CC5)cc4C3)cc(NCC3(N)COC3)c2c1` [Example 33-2, N-[(3-Aminooxetan-3-yl)methyl]-2-{1,1-dioxido-7-[4-(propan-2-yl)piperazin-1-yl]-2,3-dihydro-1,4-benzothiazepin-4(5H)-yl}-6-methylquinolin-4-amine] showed an EC50 under setting [1] of 0.627 µM. Under setting [1], `Cc1ccc2nc(N3CCC(C)(O)c4ccccc4C3)nc(NCC3(N)COC3)c2c1` (stereo not shown) [Example 115, 2-(4-{[(3-Aminooxetan-3-yl)methyl]amino}-6-methylquinazolin-2-yl)-5-methyl-2,3,4,5-tetrahydro-1H-2-benzazepin-5-ol] came in with an EC50 of 0.01 µM. Compound `Cc1ccc2nc(N3CCS(=O)(=O)c4ccccc4C3)nc(NC3CNC3)c2c1` [Example 93-2, N-(Azetidin-3-yl)-6-methyl-2-(1,1-dioxido-2,3-dihydro-1,4-benzothiazepin-4(5H)-yl)quinazolin-4-amine] registered an EC50 under setting [1] of 0.009 µM.

As for `CCS(=O)(=O)c1ccc2c(c1)CCCN(c1cc(NCCN)c3ccccc3n1)C2` [Example 120-2, N-{2-[7-(Ethylsulfonyl)-1,3,4,5-tetrahydro-2H-2-benzazepin-2-yl]quinolin-4-yl}ethane-1,2-diamine], the response under setting [1] was half-maximal at 1.79 µM (EC50). The same measure, in the same setting: for `Cc1ccc2nc(N3CCS(=O)(=O)c4ccccc4C3)cc(N[C@H]3CC[C@@H](N)CC3)c2c1` [Example 3-18, cis-N-[2-(1,1-Dioxido-2,3-dihydro-1,4-benzothiazepin-4(5H)-yl)-6-methylquinolin-4-yl]-cyclohexane-1,4-diamine] the value was 0.024 µM. In the case of `Cc1ccc2nc(N3CCC(F)(F)c4ccccc4C3)nc(NCC3(N)COC3)c2c1` [Example 116-1, N-[(3-Aminooxetan-3-yl)methyl]-2-(5,5-difluoro-1,3,4,5-tetrahydro-2H-2-benzazepin-2-yl)-6-methylquinazolin-4-amine], the midpoint of the response under setting [1], the EC50, lay at 0.005 µM. Compared with the last compound, the EC50 is about 4.8-fold lower.

Under setting [1], `Cc1cccc2c(NCCCCCCCCN)cc(N3CCS(=O)(=O)c4ccccc4C3)nc12` [Example 12-7, N-[2-(1,1-Dioxido-2,3-dihydro-1,4-benzothiazepin-4(5H)-yl)-8-methylquinolin-4-yl]octane-1,8-diamine] returned an EC50 of 0.226 µM. Under setting [1], `Cc1ccc2nc(N3CCS(=O)(=O)c4ccccc4C3)cc(N3CCN(C)CC3)c2c1` [Example 5-6, 4-[6-Methyl-4-(4-methylpiperazin-1-yl)quinolin-2-yl]-2,3,4,5-tetrahydro-1,4-benzothiazepine 1,1-dioxide] gave an EC50 of 2.06 µM. `COc1ccc2c(c1)S(=O)(=O)CCN(c1cc(NCCO)c3ccccc3n1)C2` [Example 9-2, 2-{[2-(8-M ethoxy-1,1-dioxido-2,3-dihydro-1,4-benzothiazepin-4(5 H)-yl)quinolin-4-yl]amino}ethanol] had an EC50 under setting [1] of 4.77 µM. `Cc1ccc2nc(N3CCS(=N)(=O)c4ccccc4C3)cc(NCCN)c2c1` (stereo not shown) [Example 76, N-[2-(1-Imino-1-oxido-1,2,3,5-tetrahydro-4H-1lambda˜4˜,4-benzothiazepin-4-yl)-6-methylquinolin-4-yl]ethane-1,2-diamine] had an EC50 under setting [1] of 0.006 µM. Compared with the last compound, the EC50 is about 790-fold lower. For the compound `Cc1ccc2nc(N3CCS(=O)(=O)c4ccccc4C3)cc(NCC3(N)CC3)c2c1` [Example 21-5, (1-Amino-cyclopropylmethyl)-[2-(5,5-dioxo-5,6,7,9-tetrahydro-5λ^6-thia-8-aza-benzocyclohepten-8-yl)-6-methyl-quinolin-4-yl]-amine], the EC50 under setting [1] worked out at 0.007 µM. Turning to `Cc1ccc2nc(N3CCS(=O)(=O)c4ccccc4C3)cc(S(=O)(=O)NCCN)c2c1` [Example 103, N-(2-Aminoethyl)-2-(1,1-dioxido-2,3-dihydro-1,4-benzothiazepin-4(5H)-yl)-6-methylquinoline-4-sulfonamide], a half-maximal effect under setting [1] (EC50) was put at 0.202 µM. Same read-out and setting: for `NCCCNc1cc(N2CCS(=O)(=O)c3ccccc3C2)nc2cccc(Cl)c12` [Example 9-13, N-[5-Chloro-2-(1,1-dioxido-2,3-dihydro-1,4-benzothiazepin-4(5H)-yl)quinolin-4-yl]propane-1,3-diamine] the value was 0.701 µM.

Regarding `CC(=O)Nc1cc(N2CCS(=O)(=O)c3ccccc3C2)nc2ccc(C)cc12` [Example 3-60, N-[2-(1,1-Dioxido-2,3-dihydro-1,4-benzothiazepin-4(5H)-yl)-6-methylquinolin-4-yl]acetamide], under setting [1], the EC50 was 0.617 µM.

With `CNCCNc1cc(N2CCS(=O)(=O)c3ccccc3C2)nc2ccc(C)cc12` [Example 3-31, N-[2-(1,1-Dioxido-2,3-dihydro-1,4-benzothiazepin-4(5H)-yl)-6-methylquinolin-4-yl]-N′-methylethane-1,2-diamine], under setting [1], the EC50 was determined as 0.014 µM. For the compound `Cc1ccc2nc(N3CCS(=O)(=O)c4ccccc4C3)cc(NC3CCN(C4COC4)C3)c2c1` (stereo not shown) [Example 44-1, 2-(1,1-Dioxido-2,3-dihydro-1,4-benzothiazepin-4(5H)-yl)-6-methyl-N-[1-(oxetan-3-yl)pyrrolidin-3-yl]quinolin-4-amine], under setting [1], the EC50 came to 0.084 µM.

As for `CC(=O)Nc1nc(N2CCS(=O)(=O)c3ccccc3C2)nc2ccc(C)cc12` [Example 63-4, N-[2-(1,1-Dioxido-2,3-dihydro-1,4-benzothiazepin-4(5H)-yl)-6-methylquinazolin-4-yl]acetamide], under setting [1], the midpoint of the response, the EC50, lay at 0.797 µM.
